Experimental data taken from US20160206688A1, “METHODS FOR TREATING BACTEREMIA AND OSTEOMYELITIS USING ORITAVANCIN” (THE MEDICINES COMPANY, priority 2013, published 2016).
In brackets after ≈: the same amount, converted by molar mass. Where two headings read alike, the source gives them in different places.

What was measured:
[1] = system: vancomycin-resistant enterococcal bacteremia; assay: Blood culture follow-up of compassionate use subject treated with oritavancin; type: in vivo, human
Experimental: (§1) In response to a compassionate use request, oritavancin was administered to a subject having bacteremia.
(§2) The demographics of the subject included the following: […]; […]; […]; weight—190 lb; height—70 inches. The subject's medical history included the following: CAD s/p CABG 8/08 (SVG to OM1, SVG to PDA); severe AS s/p bioprosthetic AVR 8/08; lumbar discectomy and fusion February 2011, hardware removed Jan. 11, 2013; PVD S/p bilateral CEA 2010; CKD s/p renal artery stenting December 2011, Baseline Cr approx 3.0 s; HTN; CHF; HLD; mild pulmonary fibrosis; BPH; GERD; arthritis.
The subject was diagnosed with: 1) vancomycin-resistant enterococcal bacteremia with intolerance of other antibiotics; and 2) possible spinal osteomyelitis.
(§3) Treatment as of Feb. 8, 2013: oritavancin (1200 mg IV, Q2D×3 times, then QW×5 times).
Last blood culture was Feb. 4, 2013 (negative). Attending physician will take blood sample for culture Feb. 11, 2013 and weekly thereafter.

[2] = Tolerability and laboratory findings in compassionate use subject; type: in vivo, human
Experimental: as §1, §2, §3

[3] = system: Coagulase-negative staphylococci; assay: Broth microdilution MIC, European bacteraemia isolates 2010-2012; type: cell-based, coagulase-negative staphylococci (CoNS)
Experimental: A total of 2,904 clinical strains responsible for documented bacteremia among unique hospitalized patients in 38 hospitals in 11 European Union countries. Israel, Russia, Turkey and Ukraine were included in this study (2010-2012). Isolates were submitted to a central monitoring laboratory (JMI Laboratories, North Liberty. Iowa. USA), following previously established protocols. Bacterial species identification was performed by using an automated system (Vitek®2; bioMèrieux, Hazelwood, Mo., USA) or conventional biochemical algorithms, as required.
Isolates were tested for susceptibility by broth microdilution methods following the Clinical and Laboratory Standards Institute (CLSI; M07-A9, 2012) document. Susceptibility testing was performed in cation-adjusted Mueller-Hinton broth (CA-MHB) using dry-form panels manufactured by Thermo Fisher Scientific, formerly TREK Diagnostics Systems/Sensititre (Cleveland. Ohio, USA). These panels provide results equivalent to the CLSI-approved broth microdilution method supplemented with 0.002% polysorbate-80.
Quality assurance was performed by concurrent testing of CLSI-recommended (M100-S23, 2013) strains: E. faecalis ATCC 29212 and S. aureus ATCC 29213. Interpretation of comparator MIC results was in accordance with published CLSI (M100-S23) and European Committee on Antimicrobial Susceptibility Testing (EUCAST, 2013) criteria.

[4] = CoNS, Methicillin-resistant (509), at ≦0.008 mg/L
[5] = CoNS, Methicillin-susceptible (137), at ≦0.008 mg/L
[6] = CoNS, Teicoplanin MIC ≧8 mg/L (72), at ≦0.008 mg/L
[7] = Table 1, CoNS, Methicillin-resistant (509)
[8] = Table 1, CoNS, Methicillin-susceptible (137)
[9] = Table 2, Coagulase-negative staphylococci (646)
[10] = read-out: cumulative % inhibited at MIC

For `CN[C@H](CC(C)C)C(=O)N[C@H]1C(=O)N[C@@H](CC(N)=O)C(=O)N[C@H]2C(=O)N[C@H]3C(=O)N[C@H](C(=O)N[C@H](C(=O)O)c4cc(O)cc(O)c4-c4cc3ccc4O)[C@H](O[C@H]3C[C@](C)(N)[C@@H](O)[C@H](C)O3)c3ccc(c(Cl)c3)Oc3cc2cc(c3O[C@@H]2O[C@H](CO)[C@@H](O)[C@H](O)[C@H]2O[C@H]2C[C@](C)(NCc3ccc(-c4ccc(Cl)cc4)cc3)[C@@H](O)[C@H](C)O2)Oc2ccc(cc2Cl)[C@H]1O` [Oritavancin, N-(4-(4-chlorophenyl)benzyl)A82846B], the blood culture ([1]; Feb. 11, 2013 sample, after two 1200 mg IV doses) was “negative”, the blood culture ([1]; samples taken Feb. 19, 2013, culture duration is 5 days) was “so far negative” and the creatinine ([2]; last post-dose, reported Feb. 11, 2013, pre-treatment levels 2.8 to 3) was 3.1. The tolerability ([2]; reported Feb. 20, 2013) was “tolerating oritavancin well without the adverse events from their previous antibiotics”, the creatinine ([2]; reported Feb. 20, 2013, went down from 3.1) was 1.6 and the MIC50 [3] was 0.03 µg/mL (≈ 0.0167 µM). For the same molecule, the MIC90 [3] was 0.06 µg/mL (≈ 0.0335 µM), the “MIC50 and MIC90 lower than linezolid” value ([3]; CoNS isolates) was 16 fold and the “MIC values lower than vancomycin” value ([3]; CoNS isolates) was 32- to 64 fold. For the same molecule, the “MIC results relative to strains with teicoplanin MIC≦4 mg/L” value ([3]; CoNS with decreased susceptibility to teicoplanin (MIC≧8 mg/L)) was “two-fold higher”, the MIC ([3]; CoNS with decreased susceptibility to teicoplanin (MIC≧8 mg/L), read-out: highest MIC value) was 0.25 µg/mL (≈ 0.139 µM) and the “Number inhibited at MIC” value ([3]; CoNS, Methicillin-resistant (509), at 0.015 mg/L) was 77. The “Number inhibited at MIC” value ([3]; CoNS, Methicillin-resistant (509), at 0.03 mg/L) was 181, the “Number inhibited at MIC” value ([3]; CoNS, Methicillin-resistant (509), at 0.06 mg/L) was 114 and the “Number inhibited at MIC” value ([3]; CoNS, Methicillin-resistant (509), at 0.12 mg/L) was 33. The “Number inhibited at MIC” value ([3]; CoNS, Methicillin-resistant (509), at 0.25 mg/L) was 4, the “Number inhibited at MIC” value [3, 4] was 100 and the “cumulative % inhibited at MIC” value [3, 4] was 19.7%. For the same molecule, the “Number inhibited at MIC” value ([3]; CoNS, Methicillin-susceptible (137), at 0.015 mg/L) was 28, the “Number inhibited at MIC” value ([3]; CoNS, Methicillin-susceptible (137), at 0.03 mg/L) was 50 and the “Number inhibited at MIC” value ([3]; CoNS, Methicillin-susceptible (137), at 0.06 mg/L) was 21. For the same molecule, the “Number inhibited at MIC” value ([3]; CoNS, Methicillin-susceptible (137), at 0.12 mg/L) was 1, the “Number inhibited at MIC” value [3, 5] was 37 and the “cumulative % inhibited at MIC” value [3, 5] was 27.0%. The “Number inhibited at MIC” value ([3]; CoNS, Teicoplanin MIC ≧8 mg/L (72), at 0.015 mg/L) was 1, the inhibition at 0.015 µg/mL ([3]; CoNS, Teicoplanin MIC ≧8 mg/L (72), at 0.015 mg/L, read-out: cumulative % inhibited at MIC) was 2.8% and the “Number inhibited at MIC” value ([3]; CoNS, Teicoplanin MIC ≧8 mg/L (72), at 0.03 mg/L) was 15. For the same molecule, the inhibition at 0.03 µg/mL ([3]; CoNS, Teicoplanin MIC ≧8 mg/L (72), at 0.03 mg/L, read-out: cumulative % inhibited at MIC) was 23.6%, the “Number inhibited at MIC” value ([3]; CoNS, Teicoplanin MIC ≧8 mg/L (72), at 0.06 mg/L) was 36 and the inhibition at 0.06 µg/mL ([3]; CoNS, Teicoplanin MIC ≧8 mg/L (72), at 0.06 mg/L, read-out: cumulative % inhibited at MIC) was 73.6%. For the same molecule, the “Number inhibited at MIC” value ([3]; CoNS, Teicoplanin MIC ≧8 mg/L (72), at 0.12 mg/L) was 15, the inhibition at 0.12 µg/mL ([3]; CoNS, Teicoplanin MIC ≧8 mg/L (72), at 0.12 mg/L, read-out: cumulative % inhibited at MIC) was 94.4% and the “Number inhibited at MIC” value ([3]; CoNS, Teicoplanin MIC ≧8 mg/L (72), at 0.25 mg/L) was 4. For the same molecule, the inhibition at 0.25 µg/mL ([3]; CoNS, Teicoplanin MIC ≧8 mg/L (72), at 0.25 mg/L, read-out: cumulative % inhibited at MIC) was 100%, the “Number inhibited at MIC” value [3, 6] was 1 and the “cumulative % inhibited at MIC” value [3, 6] was 1.4%. It also gave an MIC50 [3, 7] of 0.03 µg/mL (≈ 0.0167 µM), an MIC90 [3, 7] of 0.06 µg/mL (≈ 0.0335 µM) and an MIC50 [3, 8] of 0.03 µg/mL (≈ 0.0167 µM). For the same molecule, the MIC90 [3, 8] was 0.06 µg/mL (≈ 0.0335 µM), the MIC50 ([3]; Table 1, CoNS, Teicoplanin MIC ≧8 mg/L (72), read-out: MIC 50%) was 0.06 µg/mL (≈ 0.0335 µM) and the MIC90 ([3]; Table 1, CoNS, Teicoplanin MIC ≧8 mg/L (72), read-out: MIC 90%) was 0.12 µg/mL (≈ 0.0669 µM). The MIC50 [3, 9] was 0.03 µg/mL (≈ 0.0167 µM), the MIC90 [3, 9] was 0.06 µg/mL (≈ 0.0335 µM) and the “MIC Range” value [3, 9] was “≦0.008-0.25 mg/L”. For the same molecule, the inhibition at 0.015 µg/mL [3, 10] was 41.8%, the inhibition at 0.03 µg/mL [3, 10] was 79.4% and the inhibition at 0.06 µg/mL [3, 10] was 96.7%. For the same molecule, the inhibition at 0.12 µg/mL [3, 10] was 100%, the inhibition at 0.015 µg/mL ([3]; read-out: cumulative % inhibited at MIC, CoNS, Methicillin-resistant (509), at 0.015 mg/L) was 34.8% and the inhibition at 0.03 µg/mL ([3]; read-out: cumulative % inhibited at MIC, CoNS, Methicillin-resistant (509), at 0.03 mg/L) was 70.3%.
